Test results as given in US20250339569A1, “CARBONIC ANHYDRASE IX LIGANDS” (priority 2021, published 2025).
Like-named read-outs stand apart in the source and are kept apart here. Starred links: 1 amine or outer side, 2 acyl side, 3 side chain; linkers in the order of their positions; H or OH if unused. Positions of bridges follow the written chain, without caps; N, C: chain ends. Non-standard residues stand in square brackets, D forms with d. Residues, ends and D or L forms follow the SMILES beside them. *: point of attachment. Phe(3-NHCO(CH2)3SO2NH2) = N[C@@H](Cc1cccc(NC(=O)CCCS(N)(=O)=O)c1)C(=O)O; X25 = CC(=O)N[C@H](CCC(=O)O)C(=O)Nc1cccc(C[C@@H](N[*:1])C(=O)[*:2])c1; X3 = O=C(O)CN1CCN(CC(=O)O)CCN(CC(=O)NCCCOCCOCCOCCCN*)CCN(CC(=O)O)CC1; X11 = NS(=O)(=O)c1ccc(C(=O)Nc2cccc(C[C@H](N[*:1])C(=O)[*:2])c2)s1; X34 = O=C(CCc1nc[nH]n1)Nc1cccc(C[C@H](N[*:1])C(=O)[*:2])c1; DOTA = O=C(O)CN1CCN(CC(=O)O)CCN(CC(=O)*)CCN(CC(=O)O)CC1; X7 = O=C([C@H](Cc1cccc(N[*:3])c1)N[*:1])[*:2]; mXylylene = c1cc(C[*:1])cc(C[*:2])c1; X36 = NS(=O)(=O)Cc1ccc(C(=O)*)cc1; X12 = O=C(CC1CCN([*:1])CC1)[*:2]; X2 = O=C(CN1CCC(N[*:1])CC1)[*:2]; X1 = O=C(CN1CCN([*:1])CC1)[*:2]; Suc = O=C(CCC(=O)[*:2])[*:1]; Pip = O=C(O)[C@@H]1CCCCN1; Dap = NC[C@H](N)C(=O)O; Sar = CNCC(=O)O

Key:
[1] = molecular target: T1, CAIX-expressing human HT-29 colorectal cancer cells (Homo sapiens, UniProt Q16790); test: FACS binding assay (IC50 determination, competition with tracer 3BP-2776 or 3BP-4149); settings: 4° C., 1 hour, read-out: pIC50 category (activity) (converted)
T1 construct: CAIX-expressing human HT-29 colorectal cancer cells; host or cells: HT-29 human colorectal cancer cells
Procedure, shortened: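 HT-29 cells in FACS buffer (PBS, 1% FCS) at 500.000 cells/ml were exposed to compounds competing with a labelled tracer, with biotinylated compounds detected by 1 μg/mL APC-streptavidin for 30 min on ice. APC/Cy5 median fluorescence was read by flow cytometry and IC50 derived by 4PL fit.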

[2] = molecular target: T2, human carbonic anhydrase IX (hCAIX-Fc) (Homo sapiens, UniProt Q16790); test: Surface plasmon resonance assay with hCAIX-Fc; type: binding; settings: 25° C.; for t1/2 category (activity): SPR dissociation half-life, hCAIX-Fc; for Kd: SPR, hCAIX-Fc captured, read-out: pKD category (activity) (converted)
T2 construct: purchased SinoBliological (Sino Biological) 10107-H02H

[3] = FACS binding assay, HT-29 cells, competition with tracer 3BP-4149 (3 nM, Cy5-labeled)
[4] = FACS binding assay, HT-29 cells, competition with tracer 3BP-2776 (10 nM, biotin-labeled)

Compound	IC50 [1, 3] [nM]	t1/2 category (activity) [2]	Kd [2] [nM]	IC50 [1, 4] [nM]	IC50 ([1]; FACS competition on HT-29 cells, Tracer ID 3BP-2776 (10 nM, biotin-labeled)) [nM]
CC(C)C[C@@H]1NC(=O)[C@H](Cc2cccc(NC(=O)CCCS(N)(=O)=O)c2)NC(=O)[C@H](CC(=O)O)NC(=O)[C@H]2CCCN2C(=O)[C@H](CCC(=O)O)NC(=O)[C@@H](NC(=O)[C@H](Cc2ccc(O)cc2)NC(=O)[C@@H]2CCCCN2C(=O)CN2CCN(CC(=O)O)CCN(CC(=O)O)CCN(CC(=O)O)CC2)CSCc2cccc(c2)CSC[C@@H](C(N)=O)NC(=O)[C@H](CO)NC(=O)[C@H](Cc2c[nH]c3ccccc23)NC(=O)[C@H]([C@@H](C)O)NC1=O [3BP-4456] ({DOTA}-[Pip]YCE[dP]D[Phe(3-NHCO(CH2)3SO2NH2)]LTWSC-NH2; linker 3-12 via mXylylene)	10 to 79.4	A (t1/2>15.0 minutes)	< 10		
CC(C)C[C@@H]1NC(=O)[C@H](Cc2cccc(NC(=O)CCCS(N)(=O)=O)c2)NC(=O)[C@H](CC(=O)O)NC(=O)[C@H]2CCCN2C(=O)[C@H](CCC(=O)O)NC(=O)[C@@H](NC(=O)[C@H](CCC(N)=O)NC(=O)CN2CCN(CC(=O)O)CCN(CC(=O)O)CCN(CC(=O)O)CC2)CSCc2cccc(c2)CSC[C@@H](C(N)=O)NC(=O)[C@H](CO)NC(=O)[C@H](Cc2c[nH]c3ccccc23)NC(=O)[C@H]([C@@H](C)O)NC1=O [3BP-4453]		A (t1/2>15.0 minutes)	< 10	< 10	
CC(C)C[C@@H]1NC(=O)[C@H](Cc2cccc(NC(=O)CCCS(N)(=O)=O)c2)NC(=O)[C@H](CC(=O)O)NC(=O)[C@H]2CCCN2C(=O)[C@H](CCC(=O)O)NC(=O)[C@@H](NC(=O)[C@H](Cc2ccc(O)cc2)NC(=O)CN2CCN(C(=O)CN3CCN(CC(=O)O)CCN(CC(=O)O)CCN(CC(=O)O)CC3)CC2)CSCc2cccc(c2)CSC[C@@H](C(N)=O)NC(=O)[C@H](CO)NC(=O)[C@H](Cc2c[nH]c3ccccc23)NC(=O)[C@H]([C@@H](C)O)NC1=O [3BP-4448] ({DOTA}-[X1]YCE[dP]D[Phe(3-NHCO(CH2)3SO2NH2)]LTWSC-NH2; linker 3-12 via mXylylene)		A (t1/2>15.0 minutes)	< 10	< 10	
CC(C)C[C@@H]1NC(=O)[C@H](Cc2c[nH]c3ccccc23)NC(=O)[C@H](CC(=O)O)NC(=O)[C@H]2CCCN2C(=O)[C@H](CCC(=O)O)NC(=O)[C@@H]2CSCc3cccc(c3)CSC[C@@H](C(N)=O)NC(=O)[C@H](CNC(=O)C[C@H](NC(=O)CC3CCN(C(=O)CN4CCN(CC(=O)O)CCN(CC(=O)O)CCN(CC(=O)O)CC4)CC3)C(=O)N2)NC(=O)[C@H](Cc2c[nH]c3ccccc23)NC(=O)[C@H]([C@@H](C)O)NC1=O [3BP-4259] ({DOTA}-[X12]DCE[dP]DWLTW[Dap]C-NH2; lactam 2-11; linker 3-12 via mXylylene)		D (t1/2≤2.0 minutes)	< 10	< 10	
CC(C)C[C@@H]1NC(=O)[C@H](Cc2c[nH]c3ccccc23)NC(=O)[C@H](CC(=O)O)NC(=O)[C@H]2CCCN2C(=O)[C@H](CCC(=O)O)NC(=O)[C@@H](NC(=O)[C@H](Cc2ccc(O)cc2)NC(=O)CN2CCN(C(=O)CN3CCN(CC(=O)O)CCN(CC(=O)O)CCN(CC(=O)O)CC3)CC2)CSCc2cccc(c2)CSC[C@@H](C(N)=O)NC(=O)[C@H](CO)NC(=O)[C@H](Cc2c[nH]c3ccccc23)NC(=O)[C@H]([C@@H](C)O)NC1=O [3BP-4446] ({DOTA}-[X1]YCE[dP]DWLTWSC-NH2; linker 3-12 via mXylylene)	10 to 79.4	C (t1/2 between 2.1 and 5.0 minutes)	< 10		
CC(C)C[C@@H]1NC(=O)[C@H](Cc2c[nH]c3ccccc23)NC(=O)[C@H](CC(=O)O)NC(=O)CN(C)C(=O)[C@H](CCC(=O)O)NC(=O)[C@@H](NC(=O)[C@H](Cc2ccc(O)cc2)NC(=O)[C@@H](NC(=O)CCC(=O)NCCCOCCOCCOCCCNC(=O)CN2CCN(CC(=O)O)CCN(CC(=O)O)CCN(CC(=O)O)CC2)C(C)C)CSCc2cccc(c2)CSC[C@@H](C(N)=O)NC(=O)[C@H](CCC(N)=O)NC(=O)[C@H](Cc2c[nH]c3ccccc23)NC(=O)[C@H]([C@@H](C)O)NC1=O [3BP-3271] ({X3-Suc}-VYCE[Sar]DWLTWQC-NH2; linker 3-12 via mXylylene)		C (t1/2 between 2.1 and 5.0 minutes)	< 10		< 10
CC(C)C[C@@H]1NC(=O)[C@H](Cc2cccc(NC(=O)CCc3nc[nH]n3)c2)NC(=O)[C@H](CC(=O)O)NC(=O)[C@H]2CCCN2C(=O)[C@H](CCC(=O)O)NC(=O)[C@@H](NC(=O)[C@H](Cc2ccc(O)cc2)NC(=O)[C@@H](NC(=O)CN2CCC(NC(=O)CN3CCN(CC(=O)O)CCN(CC(=O)O)CCN(CC(=O)O)CC3)CC2)C(C)C)CSCc2cccc(c2)CSC[C@@H](C(N)=O)NC(=O)[C@H](CO)NC(=O)[C@H](Cc2c[nH]c3ccccc23)NC(=O)[C@H]([C@@H](C)O)NC1=O [3BP-4324] ({DOTA}-[X2]VYCE[dP]D[X34]LTWSC-NH2; linker 4-13 via mXylylene)	10 to 79.4	A (t1/2>15.0 minutes)	< 10		
CC(C)C[C@@H]1NC(=O)[C@H](Cc2cccc(NC(=O)c3ccc(S(N)(=O)=O)s3)c2)NC(=O)[C@H](CC(=O)O)NC(=O)[C@H]2CCCN2C(=O)[C@H](CCC(=O)O)NC(=O)[C@@H](NC(=O)[C@H](Cc2ccc(O)cc2)NC(=O)[C@@H](NC(=O)CN2CCC(NC(=O)CN3CCN(CC(=O)O)CCN(CC(=O)O)CCN(CC(=O)O)CC3)CC2)C(C)C)CSCc2cccc(c2)CSC[C@@H](C(N)=O)NC(=O)[C@H](CO)NC(=O)[C@H](Cc2c[nH]c3ccccc23)NC(=O)[C@H]([C@@H](C)O)NC1=O [3BP-4413] ({DOTA}-[X2]VYCE[dP]D[X11]LTWSC-NH2; linker 4-13 via mXylylene)	< 10	A (t1/2>15.0 minutes)	< 10		
CC(=O)N[C@H](CCC(=O)O)C(=O)Nc1cccc(C[C@H]2NC(=O)[C@H](CC(=O)O)NC(=O)[C@H]3CCCN3C(=O)[C@H](CCC(=O)O)NC(=O)[C@@H](NC(=O)[C@H](Cc3ccc(O)cc3)NC(=O)[C@@H](NC(=O)CN3CCC(NC(=O)CN4CCN(CC(=O)O)CCN(CC(=O)O)CCN(CC(=O)O)CC4)CC3)C(C)C)CSCc3cccc(c3)CSC[C@@H](C(N)=O)NC(=O)[C@H](CO)NC(=O)[C@H](Cc3c[nH]c4ccccc34)NC(=O)[C@H]([C@@H](C)O)NC(=O)[C@H](CC(C)C)NC2=O)c1 [3BP-4362] ({DOTA}-[X2]VYCE[dP]D[X25]LTWSC-NH2; linker 4-13 via mXylylene)	10 to 79.4	B (t1/2 between 5.1 and 15.0 minutes)	< 10		
CC(C)C[C@@H]1NC(=O)[C@H](Cc2cccc(NC(=O)c3ccc(CS(N)(=O)=O)cc3)c2)NC(=O)[C@H](CC(=O)O)NC(=O)[C@H]2CCCN2C(=O)[C@H](CCC(=O)O)NC(=O)[C@@H](NC(=O)[C@H](Cc2ccc(O)cc2)NC(=O)[C@@H](NC(=O)CN2CCC(NC(=O)CN3CCN(CC(=O)O)CCN(CC(=O)O)CCN(CC(=O)O)CC3)CC2)C(C)C)CSCc2cccc(c2)CSC[C@@H](C(N)=O)NC(=O)[C@H](CO)NC(=O)[C@H](Cc2c[nH]c3ccccc23)NC(=O)[C@H]([C@@H](C)O)NC1=O [3BP-4406] ({DOTA}-[X2]VYCE[dP]D[X7](X36)LTWSC-NH2; linker 4-13 via mXylylene)	< 10	A (t1/2>15.0 minutes)	< 10		
